Test systems include HCT-116 colon; HCT-15 colon; MALME-3M melanoma; SF-539 CNS; M14 melanoma; MDA-MB-435; T-47D breast; A498 renal; HL-60(TB) leukemia; ACHN renal.
Assay in all cases: NCI anticancer screen, dose series, 48 h

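Briefly, cells in 96-well plates were exposed to five compound concentrations for 48 h, and endpoints were estimated by linear interpolation. TGI marks complete inhibition of growth.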

On to `COC(=O)CCc1cc(OC)c2c(c1)[C@H](C(=O)OC)[C@@H](c1ccc(O)c(OC)c1)O2`, for which the TGI is greater than 100 µM in the assay with HCT-116 colon; greater than 100 µM in the assay on HCT-15 colon; greater than 100 µM in the assay on MALME-3M melanoma; greater than 100 µM with SF-539 CNS; greater than 100 µM in the assay on M14 melanoma; 39.5 µM with MDA-MB-435. Further, the TGI is greater than 100 µM in the assay on T-47D breast, 74.5 µM with A498 renal, 36 µM with HL-60(TB) leukemia and greater than 100 µM with ACHN renal.
For `CCCCn1cnc2c(c(CC#N)nn2-c2ccccc2)c1=N`, the TGI in the assay with HCT-116 colon, with HCT-15 colon, in the assay with MALME-3M melanoma, in the assay with M14 melanoma, with MDA-MB-435 and in the assay with T-47D breast was greater than 100 µM each time. The values for the TGI in the assay with A498 renal, in the assay on HL-60(TB) leukemia and with ACHN renal were 91.6 µM, greater than 100 µM and greater than 100 µM, respectively.
In the case of `C=CCNC(=S)N=Nc1c(O)[nH]c2ccc([N+](=O)[O-])cc12`, the TGI in the assay with HCT-116 colon, with HCT-15 colon, with MALME-3M melanoma, in the assay with SF-539 CNS, in the assay on M14 melanoma and with MDA-MB-435 was greater than 100 µM each time. For the same compound, the TGI in the assay with T-47D breast is 87.4 µM; with A498 renal, 91.7 µM; in the assay on HL-60(TB) leukemia, greater than 100 µM; with ACHN renal it was greater than 100 µM.
With `Cc1cc2c([N+](=O)[O-])cc3c(c2o1)C(=O)C=CC3=O`, the TGI in the assay with HCT-116 colon was 10.5 µM; in the assay with HCT-15 colon, 37.1 µM; in the assay on SF-539 CNS it was 31.3 µM; in the assay with M14 melanoma it was 10.6 µM; with MDA-MB-435, 7.81 µM; with T-47D breast, greater than 22.1 µM. For the same compound, the TGI was 29.5 µM with A498 renal and 3.77 µM in the assay with ACHN renal.
Consider `CC(C)(C)OC(=O)NCCC(N)=S`, for which the TGI with HCT-116 colon, with HCT-15 colon, in the assay with MALME-3M melanoma, with SF-539 CNS, with M14 melanoma and with MDA-MB-435 was greater than 100 µM in each case. Further, the TGI with T-47D breast, with A498 renal, in the assay with HL-60(TB) leukemia and in the assay on ACHN renal was greater than 100 µM in each case.
Turning to `CCOC(=O)c1nc2ccc(C(F)(F)F)cc2nc1Oc1ccc(C#N)cc1`, the TGI was greater than 100 µM with HCT-116 colon; greater than 100 µM in the assay with HCT-15 colon; 36.7 µM with SF-539 CNS; 42.9 µM in the assay with M14 melanoma; greater than 100 µM with MDA-MB-435; greater than 100 µM with T-47D breast. The values for the TGI in the assay with A498 renal, in the assay with HL-60(TB) leukemia and in the assay with ACHN renal were 57.1 µM, greater than 100 µM and greater than 100 µM, respectively.
For `Cc1cc(-c2nc3ccccc3s2)ccc1NC(=O)[C@@H](N)CCCCN`, the TGI with HCT-116 colon amounted to 19.9 µM; with HCT-15 colon, 24.3 µM; with MALME-3M melanoma it was 34.8 µM; in the assay with M14 melanoma it was 7.88 µM; in the assay on MDA-MB-435, 10 µM; in the assay with T-47D breast it was 1.14 µM. The figures for the TGI in the assay with A498 renal and in the assay with ACHN renal were 19.2 µM and 30.8 µM, respectively.
As for `O=C(Cc1ccccc1)NN1C(=O)/C(=C\c2ccccc2)SC1=Nc1ccccc1`, the TGI with HCT-116 colon, in the assay with HCT-15 colon, in the assay with SF-539 CNS, in the assay with M14 melanoma, in the assay with MDA-MB-435 and in the assay with T-47D breast was greater than 100 µM in each case. The TGI with A498 renal and in the assay with ACHN renal was greater than 100 µM in each case.
For the compound `Oc1[nH]c2ccc(Br)cc2c1N=NC(=S)Nc1ccc(F)cc1`, the TGI in the assay on HCT-116 colon came out at 18 µM; in the assay with HCT-15 colon, 11.8 µM; with MALME-3M melanoma, 23.8 µM; with SF-539 CNS, 38.8 µM; in the assay on MDA-MB-435, 13.6 µM; in the assay with T-47D breast, 35.4 µM. The TGI in the assay on A498 renal was determined as 8.76 µM; in the assay on HL-60(TB) leukemia, 6.84 µM; in the assay on ACHN renal it was 18 µM.
Turning to `C[C@]12CC[C@@H]3c4ccc(O)cc4CC[C@H]3[C@@H]1C/C(=C\c1ccncc1)[C@@H]2O`, the TGI in the assay on HCT-116 colon is greater than 100 µM; with HCT-15 colon, 33.3 µM; in the assay with MALME-3M melanoma, 30.9 µM; in the assay with M14 melanoma, greater than 100 µM; in the assay on MDA-MB-435, greater than 100 µM; in the assay on T-47D breast it was 13.8 µM. The TGI in the assay with A498 renal came out at 17.7 µM; with HL-60(TB) leukemia, 44.9 µM; with ACHN renal, 28.3 µM.
Consider `O=C(NCCCN(CCCCN(CCCNC(=O)C(F)(F)F)Cc1ccc2ccccc2c1)Cc1ccc2ccccc2c1)C(F)(F)F`, for which the TGI is greater than 100 µM with HCT-116 colon; greater than 100 µM in the assay with HCT-15 colon; greater than 100 µM in the assay on SF-539 CNS; 4.54 µM in the assay with M14 melanoma; 3.87 µM in the assay with MDA-MB-435; greater than 100 µM in the assay with T-47D breast. Moreover, the TGI with A498 renal and in the assay on ACHN renal was greater than 100 µM in each case.
As to `Cc1ccc(CC[P+](=O)CCc2ccc(C)nc2)cn1`, the TGI in the assay with HCT-116 colon, in the assay with HCT-15 colon, with MALME-3M melanoma, in the assay with SF-539 CNS, in the assay on M14 melanoma and in the assay on MDA-MB-435 was greater than 100 µM throughout. In addition, the TGI with T-47D breast, in the assay on HL-60(TB) leukemia and in the assay on ACHN renal was greater than 100 µM in each case.
Turning to `O=C(Nc1ccccc1F)c1cc2ccc(O)cc2oc1=Nc1ccccc1F`, the TGI in the assay on HCT-116 colon was determined as 4.01 µM; in the assay on HCT-15 colon, 6.28 µM; in the assay with MALME-3M melanoma, 3.44 µM; in the assay on SF-539 CNS, 16.5 µM; in the assay with M14 melanoma, 5.57 µM; with MDA-MB-435, 4.24 µM. The TGI worked out at 4.63 µM with T-47D breast, 4.54 µM in the assay with HL-60(TB) leukemia and 5.3 µM in the assay on ACHN renal.
For the compound `C[C@@H]1S[C@H](c2ccccc2F)N2Cc3ccccc3N=C12`, the TGI was 42.2 µM in the assay with HCT-116 colon; greater than 100 µM in the assay on HCT-15 colon; 54.2 µM in the assay with MALME-3M melanoma; greater than 100 µM in the assay on SF-539 CNS; 48.7 µM in the assay with M14 melanoma; 88.5 µM with MDA-MB-435. The TGI in the assay with T-47D breast was 91.4 µM; with HL-60(TB) leukemia, 52.3 µM; in the assay on ACHN renal it was greater than 100 µM.
Regarding `CC(=O)O[C@H]1C(=O)[C@@]2(C)[C@H]([C@H](OC(=O)c3ccc(F)cc3)[C@]3(O)C[C@H](OC(=O)[C@H](O)[C@@H](NC(=O)c4ccccc4)c4ccccc4)C(C)=C1C3(C)C)[C@]1(OC(C)=O)CO[C@@H]1C[C@@H]2O`, the TGI was 0.381 µM with HCT-116 colon; greater than 25 µM with HCT-15 colon; greater than 25 µM in the assay with MALME-3M melanoma; 0.0604 µM in the assay on SF-539 CNS; 0.0049 µM in the assay on MDA-MB-435; greater than 9.63 µM with T-47D breast. Besides, the values for the TGI in the assay with A498 renal, in the assay with HL-60(TB) leukemia and in the assay with ACHN renal were greater than 6.73 µM, 0.0149 µM and greater than 25 µM, respectively.
In the case of `C[C@@H](Cl)[C@H]1CCCN(Cc2ccc(Br)cc2)C1`, the TGI in the assay with HCT-15 colon, with MALME-3M melanoma, in the assay with SF-539 CNS, with M14 melanoma, with MDA-MB-435 and with T-47D breast was greater than 12.5 µM each time. The TGI with A498 renal, in the assay with HL-60(TB) leukemia and with ACHN renal was greater than 12.5 µM each time.
For the compound `CCOC(=O)C1(C(=O)OCC)COS(=O)OC1`, the TGI in the assay with HCT-116 colon is 31.2 µM; in the assay with HCT-15 colon, 54.6 µM; in the assay on M14 melanoma it was greater than 100 µM; with MDA-MB-435, greater than 100 µM; in the assay on T-47D breast, 50.8 µM; in the assay on A498 renal, greater than 100 µM. Moreover, in the assay with ACHN renal, the TGI is greater than 100 µM.
With `Cc1ccc(OCCn2cc(Nc3ccccc3)c(=O)n(CCOc3ccc(C)cc3)c2=O)cc1`, the TGI in the assay with HCT-116 colon, in the assay with HCT-15 colon, in the assay with MALME-3M melanoma, in the assay on SF-539 CNS, with M14 melanoma and with MDA-MB-435 was greater than 100 µM in each case. Besides, the TGI with T-47D breast, with A498 renal and with ACHN renal was greater than 100 µM in each case.
Regarding `CC(=O)c1cccn1/C=C(\OC(=O)OC(C)(C)C)c1ccc[nH]1`, the TGI in the assay on HCT-116 colon, in the assay with HCT-15 colon, with MALME-3M melanoma, with M14 melanoma, in the assay on MDA-MB-435 and in the assay with T-47D breast was greater than 100 µM in each case. In addition, the TGI in the assay on A498 renal was greater than 100 µM; with HL-60(TB) leukemia, 98.1 µM; in the assay with ACHN renal, greater than 100 µM.
As to `O=C1NCC(NC(=O)C(F)(F)F)c2c(Br)sc(Br)c21` (stereo not given), the TGI in the assay on HCT-116 colon, in the assay with HCT-15 colon, in the assay on MALME-3M melanoma, in the assay with SF-539 CNS, with M14 melanoma and in the assay on MDA-MB-435 was greater than 100 µM throughout. Besides, the TGI with T-47D breast, in the assay on A498 renal and in the assay on ACHN renal was greater than 100 µM throughout.
As to `O=c1[nH]cnc2c1ncn2[C@@H]1C[C@@H]1CO`, the TGI in the assay with HCT-116 colon, with HCT-15 colon, with MALME-3M melanoma, with SF-539 CNS, in the assay with M14 melanoma and with MDA-MB-435 was greater than 100 µM throughout. For the same compound, the TGI with T-47D breast, in the assay with HL-60(TB) leukemia and in the assay on ACHN renal was greater than 100 µM each time.
As for `N#CCc1nc(-c2ccccc2)n[nH]1`, the TGI in the assay on HCT-116 colon, in the assay with HCT-15 colon, in the assay on MALME-3M melanoma, in the assay on SF-539 CNS, in the assay on M14 melanoma and in the assay with MDA-MB-435 was greater than 100 µM throughout. In addition, the TGI in the assay with T-47D breast, in the assay on HL-60(TB) leukemia and in the assay on ACHN renal was greater than 100 µM in each case.

Values taken from PubChem BioAssay (NCI).
